The source of these data is ChEMBL document CHEMBL4393686, “InCl3 mediated heteroarylation of indoles and their derivatization via CH activation strategy: Discovery of 2-(1H-indol-3-yl)-quinoxaline derivatives as a new class of PDE4B selective inhibitors for arthritis and/or multiple sclerosis” (Eur J Med Chem, 2019).

The assay addresses cAMP and cAMP-inhibited cGMP 3',5'-cyclic phosphodiesterase 10A (Homo sapiens) (UniProt Q9Y233). The assay is described as follows: Inhibition of recombinant N-terminal GST-tagged full length human PDE10A2 expressed in Sf9 cells using FAM-cAMP as substrate at 10 uM incubated for 60 mins by fluorescence plate reader analysis.

Sequence of cAMP and cAMP-inhibited cGMP 3',5'-cyclic phosphodiesterase 10A (Homo sapiens) (Q9Y233 whole entry): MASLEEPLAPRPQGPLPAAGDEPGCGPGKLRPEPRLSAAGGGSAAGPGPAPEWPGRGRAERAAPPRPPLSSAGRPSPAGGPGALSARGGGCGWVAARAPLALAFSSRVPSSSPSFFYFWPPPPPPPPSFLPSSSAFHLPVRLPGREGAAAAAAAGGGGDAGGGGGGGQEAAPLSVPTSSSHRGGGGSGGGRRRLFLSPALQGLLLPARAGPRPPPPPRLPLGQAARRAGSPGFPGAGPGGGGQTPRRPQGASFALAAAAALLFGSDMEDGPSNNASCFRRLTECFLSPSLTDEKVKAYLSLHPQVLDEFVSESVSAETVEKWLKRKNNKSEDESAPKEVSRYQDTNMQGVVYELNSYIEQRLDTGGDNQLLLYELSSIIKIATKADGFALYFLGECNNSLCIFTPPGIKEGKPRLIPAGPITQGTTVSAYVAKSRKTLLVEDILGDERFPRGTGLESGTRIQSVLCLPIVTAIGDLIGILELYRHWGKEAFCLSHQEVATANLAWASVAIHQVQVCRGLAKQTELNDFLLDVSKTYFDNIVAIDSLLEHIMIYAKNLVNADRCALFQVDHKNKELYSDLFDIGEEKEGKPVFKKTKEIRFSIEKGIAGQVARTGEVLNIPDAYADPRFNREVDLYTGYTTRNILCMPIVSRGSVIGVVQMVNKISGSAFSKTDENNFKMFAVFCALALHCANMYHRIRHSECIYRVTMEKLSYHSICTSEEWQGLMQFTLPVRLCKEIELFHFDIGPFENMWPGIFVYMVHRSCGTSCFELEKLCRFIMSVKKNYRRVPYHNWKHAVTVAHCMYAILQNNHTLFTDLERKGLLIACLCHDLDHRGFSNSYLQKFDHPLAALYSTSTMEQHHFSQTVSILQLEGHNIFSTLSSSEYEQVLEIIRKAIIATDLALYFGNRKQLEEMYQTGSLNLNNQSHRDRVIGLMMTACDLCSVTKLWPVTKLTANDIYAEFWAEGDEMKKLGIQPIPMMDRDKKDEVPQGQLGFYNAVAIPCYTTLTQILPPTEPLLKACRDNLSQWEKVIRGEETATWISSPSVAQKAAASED

On to `C=CCn1cc(-c2nc3ccccc3nc2Cl)c2cc(OC)ccc21`, for which the inhibition (usually the relative decrease from the control value, in per cent) is 15%.
